Measurements published in patent US6756208B2, “Plasma glucosylceramide deficiency as risk factor for thrombosis and modulator of anticoagulant protein C” (priority 2001, dated 2004).
Entries after “also recorded” stand apart in the source; their conditions may differ. Each block holds one compound with its values, some of them ahead of it.

Columns and labels:
APC:protein S [1] = assay: Modified dilute prothrombin time clotting assay with glycolipid vesicles added to normal plasma; format: biochemical, human; conditions: for effect on APC:protein S anticoagulant response: 0-100 mg/ml; for anticoagulant response of plasma to APC:protein S (clotting time prolongation, modified PT assay): glycolipid vesicles added to normal plasma, APC plus protein S present; for effect on baseline clotting times: without APC or protein S added
Description: Anticoagulant response to APC:protein S. Modified dilute prothrombin time based assays were performed as previously described. Briefly, 7.5 μl of test plasma was mixed with fibrinogen (0.6 mg/ml final concentration) and APC (8.7 nM final) plus protein S (28 nM final) or buffer, and incubated 3 min at 37° C. (100 μl total volume). Clotting times were measured after addition of 50 μl of recombinant human tissue factor (Innovin from DADE, Miami, Fla.) diluted 1:40 in Tris (tris[hydroxymethyl] aminomethane)-buffered saline containing 0.5% bovine serum albumin (TBSA) and 30 mM CaCl2. Baseline clotting times without addition of APC:protein S were also determined. For studies of the effects of glycolipid vesicles or glucocerebrosidase treatment on clotting assays, a 1:64 dilution of Innovin was used in the presence or absence of APC and protein S. In the study of the effect of glucocerebrosidase, 13 nM APC and 42 nM protein S were employed.
Preparation of glycolipid vesicles. To prepare extruded glycolipid vesicles, dried glycolipids GlcCer, Gb3Cer, galactosylceramide (GalCer) (Sigma), and LacCer were suspended at 100 μg/ml in TBS at room temperature, vortexed 5 min, and passed through a 0.2 μm filter (Osmonics, Livermore, Calif.). Concentrations of glycolipids recovered after filtration were determined by HPLC analysis as described above.

factor Va [2] = molecular target: T1, factor Va (Homo sapiens, UniProt P12259); assay: Factor Va inactivation by APC/protein S with 1, 5 or 10% glycolipid in PC/PS vesicles (Example 7); format: biochemical; conditions: for effect on factor Va inactivation by APC:protein S, glycolipid incorporated into PC/PS vesicles (overall statement): glycolipid content not specified; for enhancement of factor Va inactivation by APC/protein S: APC 0.16 nM, 5 min
T1 construct: APC cleaves the heavy chain of factor Va at Arg506, and then Arg306, and perhaps Arg679
T1 sequence (P12259 29-737 limits assumed): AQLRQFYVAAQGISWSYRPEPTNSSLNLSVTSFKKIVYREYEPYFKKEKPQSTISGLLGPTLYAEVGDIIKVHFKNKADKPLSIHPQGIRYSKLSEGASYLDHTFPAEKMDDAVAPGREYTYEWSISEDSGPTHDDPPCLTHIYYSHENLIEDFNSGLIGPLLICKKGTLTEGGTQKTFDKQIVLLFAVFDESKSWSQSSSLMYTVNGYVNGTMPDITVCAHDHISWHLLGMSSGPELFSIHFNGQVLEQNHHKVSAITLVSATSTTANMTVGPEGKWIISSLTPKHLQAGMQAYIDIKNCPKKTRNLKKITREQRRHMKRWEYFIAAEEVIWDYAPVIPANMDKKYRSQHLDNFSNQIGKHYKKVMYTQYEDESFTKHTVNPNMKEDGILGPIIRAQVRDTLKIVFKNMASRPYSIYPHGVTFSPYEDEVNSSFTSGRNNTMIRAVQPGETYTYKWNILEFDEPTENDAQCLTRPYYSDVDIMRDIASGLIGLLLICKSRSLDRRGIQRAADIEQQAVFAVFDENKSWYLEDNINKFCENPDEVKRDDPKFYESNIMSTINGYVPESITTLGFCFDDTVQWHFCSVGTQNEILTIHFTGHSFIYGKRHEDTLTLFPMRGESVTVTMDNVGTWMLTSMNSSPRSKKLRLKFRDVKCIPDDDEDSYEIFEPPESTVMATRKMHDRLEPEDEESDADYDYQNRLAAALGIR
T1 sequence (P12259 1574-2224 limits assumed): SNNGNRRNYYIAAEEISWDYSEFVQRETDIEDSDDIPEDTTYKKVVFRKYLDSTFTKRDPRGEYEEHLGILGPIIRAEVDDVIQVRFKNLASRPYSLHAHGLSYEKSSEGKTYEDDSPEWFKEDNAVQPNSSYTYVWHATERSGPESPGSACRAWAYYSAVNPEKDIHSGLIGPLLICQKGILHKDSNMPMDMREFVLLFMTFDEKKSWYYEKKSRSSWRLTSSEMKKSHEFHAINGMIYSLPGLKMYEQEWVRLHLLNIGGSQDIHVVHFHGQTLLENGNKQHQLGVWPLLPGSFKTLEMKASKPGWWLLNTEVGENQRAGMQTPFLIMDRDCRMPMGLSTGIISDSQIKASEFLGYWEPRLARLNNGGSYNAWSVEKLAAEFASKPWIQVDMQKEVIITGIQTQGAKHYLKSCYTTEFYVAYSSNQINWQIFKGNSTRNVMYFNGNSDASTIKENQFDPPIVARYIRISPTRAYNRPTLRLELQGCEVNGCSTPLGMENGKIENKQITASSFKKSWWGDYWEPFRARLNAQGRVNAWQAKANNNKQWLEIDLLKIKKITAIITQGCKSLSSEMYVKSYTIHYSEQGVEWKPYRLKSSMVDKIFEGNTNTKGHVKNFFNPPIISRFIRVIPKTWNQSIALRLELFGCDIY
Description: FIGS. 6A-6E. Anticoagulant response of plasma to APC/protein S is enhanced by addition of glycolipids. Purified factor Va (1.5 nM) was incubated with APC (0.16 nM final)/protein S (18 nM final) and varying lipid vesicles to allow factor Va inactivation for five minutes and then the residual factor Va activity was determined using prothrombin time clotting assays.
Purified factor Va (1.5 nM) was incubated with APC (0.16 nM final)/protein S (18 nM final) and varying lipids vesicles to allow factor Va inactivation for 5 min., and then the residual factor Va activity was determined using prothrombin time clotting assays.

APC:protein S [3] = assay: Factor Xa-1-stage clotting assays without addition of exogenous lipids; format: biochemical; conditions: presence versus absence of APC:protein S; data not shown
factor Va [4] = molecular target: T1, factor Va; assay: Factor Va inactivation assay with purified proteins (GlcCer vesicles and multicomponent PC/PS/GlcCer vesicles); format: biochemical
Description: Large unilamellar multicomponent vesicles were prepared generally as described. (27) Appropriate aliquots of PC, PS and GlcCer were mixed and dried under nitrogen. The lipid mixture was hydrated at a concentration of 6.25 mM lipid in TBS and freeze-thawed 10 times using liquid nitrogen, and the solution of vesicles was passed 15 times through a 0.2 μm filter (Millipore). Concentrations of glycolipid recovered after filtration were determined by HPLC analysis as described above. PC concentration was determined by an enzymatic […] method (Phospholipids B kit, Wako Chemical USA, Inc., Richmond, Va.).
Factor Va inactivation assay. To study the time course of factor Va inactivation by APC:protein S, mixtures containing GlcCer vesicles or control PC vesicles (21.5 μM) or buffer, APC (6 nM final), protein S (18 nM final), and factor Va (1.5 nM) with 5 mM CaCl2 were incubated at 37° C. Aliquots were withdrawn at various times and the reaction was quenched by adding ethylenediamine tetraacetic acid (EDTA) prior to determination of residual factor Va activity. […] The residual factor Va activity was quantitated using prothrombin time clotting assays and standard log-log calibration curves of clotting time versus factor Va concentration generated using purified factor Va and factor V deficient plasma. […]

[5] = 1% glycolipid in PC/PS vesicles
[6] = 5% glycolipid in PC/PS vesicles
[7] = 10% glycolipid in PC/PS vesicles

Compound: OC[C@H]1OC(O)[C@H](O)[C@@H](O)[C@@H]1O (stereo partly drawn) [D-Glc, reference compound]
effect on APC:protein S anticoagulant response (APC:protein S [1]; data not shown): Neither D-Glc alone nor ceramide alone (0-100 mg/ml) affected
anticoagulant response of plasma to APC:protein S (clotting time prolongation, modified PT assay) (APC:protein S [1]): neither D-Glc alone nor ceramide alone was anticoagulantly active

Compound: galactosylceramide [GalCer]
anticoagulant response of plasma to APC:protein S (clotting time prolongation, modified PT assay) (APC:protein S [1]): did not enhance APC:protein S action; also recorded: inactive
effect on baseline clotting times (APC:protein S [1]): no effect on baseline clotting times
enhancement of factor Va inactivation (factor Va [2]; above 10 μg/ml of total lipid, 5 and 10% glycolipid in PC/PS vesicles): enhanced factor Va inactivation by APC/protein C like GlcCer in PC/PS vesicle
effect on factor Va inactivation compared with GlcCer in PC/PS (factor Va [2]; below 10 μg/ml): not as well as GlcCer in PC/PS
effect on factor Va inactivation by APC:protein S, glycolipid incorporated into PC/PS vesicles (overall statement) (factor Va [2]): significantly directly enhance inactivation

Compound: ceramide [reference compound]
effect on APC:protein S anticoagulant response (APC:protein S [1]; data not shown): Neither D-Glc alone nor ceramide alone (0-100 mg/ml) affected
anticoagulant response of plasma to APC:protein S (clotting time prolongation, modified PT assay) (APC:protein S [1]): neither D-Glc alone nor ceramide alone was anticoagulantly active

Compound: lactosylceramide [LacCer]
anticoagulant response of plasma to APC:protein S (clotting time prolongation, modified PT assay) (APC:protein S [1]): much lower activity; also recorded: does not possess this anticoagulant property
enhancement of factor Va inactivation by APC/protein S (factor Va [2]; [5]): little like GlcCer
factor Va inactivation reached (factor Va [2]; [7]): up to 90%
enhancement of factor Va inactivation by APC/protein S (factor Va [2]; [7]): dramatically enhanced factor Va inactivation
effect on factor Va inactivation by APC:protein S, glycolipid incorporated into PC/PS vesicles (overall statement) (factor Va [2]): significantly directly enhance inactivation

Second part, led by results:

effect on factor Va inactivation by APC:protein S, glycolipid incorporated into PC/PS vesicles (overall statement) (factor Va [2]): much weaker effect
Compound: globotetraosylceramide [Gb4Cer]

enhancement of factor Va inactivation by APC/protein S (factor Va [2]; [5]): little enhancement effect
factor Va inactivation reached (factor Va [2]; [6]): up to 60%
concentration from which the enhancement effect was observed (factor Va [2]; 5 and 10% GlcCer in PC/PS vesicle): ≥ 1 µg/mL
factor Va inactivation reached (factor Va [2]; [7]): up to 60%
Compound: glucosylceramide [GlcCer]
clotting time prolongation, modified PT assay (APC:protein S [1]; APC alone added without protein S): much less clotting time prolongation
anticoagulant response of plasma to APC:protein S (clotting time prolongation, modified PT assay) (APC:protein S [1]): dose-dependent marked prolongation; also recorded: dose-dependently enhances the anticoagulant response; also recorded: dose-dependently enhanced this anticoagulant response; also recorded: very active
effect on clotting times, modified PT assay (APC:protein S [1]; protein S alone added in the absence of APC, data not shown): no effect on clotting times
effect on baseline clotting times (APC:protein S [1]): without affecting baseline clotting time
clotting time prolongation in factor Xa-1-stage assays (APC:protein S [3]): clotting time prolongation in the presence but not absence of APC:protein S
inactivation of purified factor Va by APC:protein S (overall statement) (factor Va [4]): directly enhanced inactivation of purified factor Va; also recorded: enhances factor Va inactivation
enhancement of factor Va inactivation by APC/protein S (factor Va [2]; [6]): enhanced inactivation of factor Va much more
enhancement of factor Va inactivation by APC/protein S (factor Va [2]; [7]): enhanced inactivation of factor Va much more
effect on factor Va inactivation by APC:protein S, glycolipid incorporated into PC/PS vesicles (overall statement) (factor Va [2]): significantly directly enhance inactivation

enhancement of factor Va inactivation by APC/protein S (factor Va [2]; [6]): enhanced much more
Compound: globotriaosylceramide [Gb3Cer]
anticoagulant response of plasma to APC:protein S (clotting time prolongation, modified PT assay) (APC:protein S [1]): activity very similar to GlcCer; also recorded: approximately equally active; also recorded: enhanced
enhancement of factor Va inactivation by APC/protein S (factor Va [2]; [5]): enhanced inactivation of factor Va significantly even at 1 μg/ml
effect on factor Va inactivation by APC:protein S, glycolipid incorporated into PC/PS vesicles (overall statement) (factor Va [2]): significantly directly enhance inactivation
